Here are results for 29 compounds from ChEMBL document CHEMBL1201862, “PubChem BioAssay data set” (2004).

One series concerns the target Cytochrome P450 2C19 (Homo sapiens, UniProt P33261). Description: Cytochrome panel assay with activity outcomes. Panel member name: p450-cyp2c19 Compounds with AC50 equal or less than 10 uM are considered active. It counts as functional.
Series [1] has as its target T1, Corticotropin-releasing factor receptor 2/Corticotropin-releasing factor-binding protein (Homo sapiens, UniProt P24387+Q13324).
T1 sequence (Q13324 whole entry): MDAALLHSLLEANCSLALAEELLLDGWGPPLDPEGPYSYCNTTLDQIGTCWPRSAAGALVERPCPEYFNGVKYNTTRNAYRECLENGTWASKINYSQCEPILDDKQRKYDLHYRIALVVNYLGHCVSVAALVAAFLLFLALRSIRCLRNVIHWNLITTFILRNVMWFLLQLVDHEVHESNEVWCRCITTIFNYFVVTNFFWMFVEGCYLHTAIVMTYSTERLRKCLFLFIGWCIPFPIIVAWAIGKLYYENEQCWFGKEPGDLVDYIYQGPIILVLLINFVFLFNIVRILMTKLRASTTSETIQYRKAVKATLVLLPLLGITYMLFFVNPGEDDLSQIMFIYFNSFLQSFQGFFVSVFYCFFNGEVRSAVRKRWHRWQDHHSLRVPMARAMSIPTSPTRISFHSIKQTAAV
T1 sequence (P24387 whole entry): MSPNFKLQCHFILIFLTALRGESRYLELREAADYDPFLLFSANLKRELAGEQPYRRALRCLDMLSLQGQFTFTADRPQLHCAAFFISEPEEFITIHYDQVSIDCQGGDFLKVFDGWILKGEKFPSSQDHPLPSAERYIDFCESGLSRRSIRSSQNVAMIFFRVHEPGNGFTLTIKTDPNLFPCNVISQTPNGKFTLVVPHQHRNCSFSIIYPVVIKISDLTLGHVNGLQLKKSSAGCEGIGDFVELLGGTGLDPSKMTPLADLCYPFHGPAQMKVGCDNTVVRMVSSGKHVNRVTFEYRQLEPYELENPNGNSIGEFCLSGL
The series can be described thus: activators of CRF receptor 2 with binding protein – uHTS hits, confirmation (AID 602473). It is filed as functional. The following applies: read-out: EC50_Mean.

Series [2] is described as follows: Luminescence Cell-Based Dose Response HTS to Identify Activators of Luciferase Translation or Activity in H4 […] Cells. [Related pubchem assays: 1829 (Project Summary), 1814 (Primary HTS)]. It is filed as functional.
The nature of series [3]: Luminescence Cell-Based Dose Confirmation HTS to Identify Activators of 5'UTR Stem-Loop Driven Alpha-Synuclein mRNA Translation in H4 Neuroglioblastoma Cells. [Related pubchem assays: 1829 (Project Summary), 1814 (Primary HTS)]. It counts as functional.
For another series, the system named is H4. Description: Luminescence Cell-Based Dose Response HTS to Identify Activators of 5'UTR Stem-Loop Driven Prion Protein mRNA Translation in H4 Neuroglioblastoma Cells. [Related pubchem assays: 1829 (Project Summary), 1814 (Primary HTS)]. It is filed as functional. Conditions: Homo sapiens.
Series [4] in a line: inhibitors of SNCA 5'UTR-driven reporter translation, confirmation, H4 neuroglioma cells, luminescence (AID 1988). It is filed as functional, cell-based.
Series [5] in a line: Luminescence Cell-Based Dose Response HTS to Identify Inhibitors of 5'UTR Stem-Loop Driven Prion Protein mRNA Translation in H4 Neuroglioblastoma Cells. [Related pubchem assays: 1827 (Project Summary), 1813 (Primary HTS)]. It counts as functional.
Series [6] can be described thus: inhibitors of firefly luciferase expression or activity, dose response, H4 neuroglioma cells, luminescence (AID 1990). It is filed as functional, cell-based.
A short description of series [7]: cytotoxicity toward NIH3T3 fibroblasts, dose response, counter-screen, cell-based, ATP luminescence, mouse fibroblasts (AID 2010).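 Note: cells exposed to compound for about 90 hours before reading.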 It is filed as functional.
The test system of a further series is INS1. The series can be described thus: beta cell apoptosis inhibitors, cytokine rescue, dose response, luminescence, retest (AID 449756).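 Note: cell death triggered by IL-1 beta plus TNF-alpha plus IFN-gamma mixture; protective hits raise ATP signal compared with cytokine alone wells.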 It is filed as functional, cell-based. The following applies: Rattus norvegicus.
The nature of series [8]: inhibitors of intracellular T. cruzi replication, confirmation, NIH3T3 host cells, beta-gal luminescence (AID 2044).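 Note: intracellular parasites grown in NIH/3T3 mouse fibroblasts as host cells; luminescent beta-galactosidase reporter signal from transgenic T. cruzi replicating inside host cells; inhibitors lower the luminescence signal.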 It is filed as functional, cell-based.
A further series has as its target T2, Streptokinase A (Streptococcus pyogenes serotype M1, UniProt P10520).
T2 sequence (P10520 whole entry): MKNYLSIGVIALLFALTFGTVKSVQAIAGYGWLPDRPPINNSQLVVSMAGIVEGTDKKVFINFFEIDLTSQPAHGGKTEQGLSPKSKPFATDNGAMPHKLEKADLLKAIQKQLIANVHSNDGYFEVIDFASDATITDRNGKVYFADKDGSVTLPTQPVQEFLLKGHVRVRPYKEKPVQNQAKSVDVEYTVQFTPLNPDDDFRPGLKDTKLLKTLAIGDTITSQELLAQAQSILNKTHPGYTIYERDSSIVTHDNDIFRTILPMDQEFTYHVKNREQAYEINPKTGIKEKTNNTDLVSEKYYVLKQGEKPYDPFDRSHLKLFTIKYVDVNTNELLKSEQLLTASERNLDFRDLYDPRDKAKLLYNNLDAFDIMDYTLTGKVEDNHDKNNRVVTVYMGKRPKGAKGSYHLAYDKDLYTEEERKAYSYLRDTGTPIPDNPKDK
The series can be described thus: S. pyogenes streptokinase expression inhibitors, potency, dose response, plasminogen activation absorbance, OD405 (AID 1914).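 Note: secreted streptokinase activity via plasminogen activation per viability signal from cell pellet.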 It counts as functional, Streptococcus pyogenes M1 GAS.

Series [9] has as its system Streptococcus sp. 'group A'. The series can be described thus: growth inhibition of control SK(-) GAS strain, dose response, counter-screen for streptokinase expression inhibitor project, luminescence, kanamycin, BacTiterGlo, confirmation (AID 1900). It is filed as functional, organism-based.
For the next series, the target named is T3, Cytochrome P450 1A2 (Homo sapiens, UniProt P05177).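 Note: PubChem cytochrome P450 panel assay, CYP1A2 panel member.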
T3 sequence (P05177 whole entry): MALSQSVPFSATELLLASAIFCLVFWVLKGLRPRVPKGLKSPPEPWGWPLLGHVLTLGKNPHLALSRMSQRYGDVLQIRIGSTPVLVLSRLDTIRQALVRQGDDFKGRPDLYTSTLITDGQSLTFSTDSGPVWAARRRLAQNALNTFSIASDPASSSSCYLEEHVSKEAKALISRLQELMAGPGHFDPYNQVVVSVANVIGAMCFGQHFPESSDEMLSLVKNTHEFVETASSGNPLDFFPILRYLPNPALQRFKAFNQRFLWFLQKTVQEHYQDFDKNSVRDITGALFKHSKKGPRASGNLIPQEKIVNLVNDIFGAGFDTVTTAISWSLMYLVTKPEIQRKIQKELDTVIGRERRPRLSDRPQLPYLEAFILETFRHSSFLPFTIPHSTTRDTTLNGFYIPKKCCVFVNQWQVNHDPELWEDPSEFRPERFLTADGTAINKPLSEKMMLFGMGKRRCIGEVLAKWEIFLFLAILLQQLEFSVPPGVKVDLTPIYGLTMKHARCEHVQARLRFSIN

The test system of another series is Streptococcus. Description: Group A Streptococcus viability loss, dose response, counter-screen for streptokinase expression inhibitor project, luminescence, BacTiterGlo (AID 1915).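 Note: potency for reduction of bacterial viability or growth.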 It is filed as functional, organism-based.
A further series concerns the target Cytochrome P450 2C9 (Homo sapiens, UniProt P11712).

Each structure is given as a SMILES string. Active and inactive are the calls of the source.

Chain of Cytochrome P450 2C19 (P33261 whole entry): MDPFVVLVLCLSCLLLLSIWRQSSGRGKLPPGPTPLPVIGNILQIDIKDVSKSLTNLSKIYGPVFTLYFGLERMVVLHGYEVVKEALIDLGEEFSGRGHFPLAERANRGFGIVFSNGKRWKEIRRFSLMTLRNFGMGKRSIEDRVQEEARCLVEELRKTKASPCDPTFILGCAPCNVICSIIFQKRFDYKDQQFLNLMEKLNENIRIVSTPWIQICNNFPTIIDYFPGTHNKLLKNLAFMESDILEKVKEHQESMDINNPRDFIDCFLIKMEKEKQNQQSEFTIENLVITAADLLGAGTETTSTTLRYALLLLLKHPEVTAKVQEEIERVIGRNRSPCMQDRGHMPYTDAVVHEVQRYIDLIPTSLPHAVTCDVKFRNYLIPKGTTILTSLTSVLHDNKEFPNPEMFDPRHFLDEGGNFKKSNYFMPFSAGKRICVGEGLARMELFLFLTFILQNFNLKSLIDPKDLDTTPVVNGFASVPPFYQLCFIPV
Chain of Cytochrome P450 2C9 (P11712 whole entry): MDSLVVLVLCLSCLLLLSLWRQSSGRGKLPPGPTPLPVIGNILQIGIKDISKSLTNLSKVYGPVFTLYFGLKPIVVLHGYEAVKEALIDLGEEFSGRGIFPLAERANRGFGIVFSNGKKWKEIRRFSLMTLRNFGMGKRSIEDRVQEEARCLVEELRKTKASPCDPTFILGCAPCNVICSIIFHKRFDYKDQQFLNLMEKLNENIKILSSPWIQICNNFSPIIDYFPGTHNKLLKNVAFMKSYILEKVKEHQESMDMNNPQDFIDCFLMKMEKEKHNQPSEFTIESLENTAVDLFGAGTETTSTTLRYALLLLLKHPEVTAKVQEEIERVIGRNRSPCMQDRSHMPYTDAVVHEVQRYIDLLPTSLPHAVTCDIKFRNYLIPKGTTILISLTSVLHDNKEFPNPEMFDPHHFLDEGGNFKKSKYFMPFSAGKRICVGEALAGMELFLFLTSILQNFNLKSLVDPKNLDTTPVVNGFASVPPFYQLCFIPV

As to `C[C@]1(C(=O)O)[C@@H]2CC[C@@H](O2)[C@@]1(C)C(=O)O`, the AC50 entry at Cytochrome P450 2C19 is reported as “inconclusive”.

As for `CCOc1ccc(NS(=O)(=O)c2ccc(C(=O)NCC3(N(C)C)CCCCC3)cc2)cc1`, the EC50 in [1] is 8.72 µM (active).

Turning to `Cc1sc2ncnc(Sc3nc4ccccc4s3)c2c1C`, the EC50 (in [2]; in series [3]; in the series with H4) was > 120 µM (not active) throughout.

As for `COc1ccc(-c2nc3c4c(ncn3n2)-c2ccccc2CC42CCCC2)cc1`, the figures for the EC50 in series [4], in series [5] and in series [6] were 14.7 µM (active), > 120 µM (not active) and 23 µM (active), respectively.

On to `CCOc1ccc(S(=O)(=O)N2CCCCC2)c2ccccc12`, for which the figures for the EC50 in series [4], in series [5] and in series [6] were > 120 µM (not active), > 120 µM (not active) and 20.9 µM (active), respectively.

On to `Cc1cc[n+](C(C)C(=O)c2ccc(-c3ccccc3)cc2)cc1` (stereo not drawn), for which the EC50 in series [7] was > 60 µM (not active); in [8] it was 3.33 µM (active). Besides, in the series with INS1, the AC50 was 4.05 µM (active).

As to `CC(=O)C(C(C)=O)c1cc(NS(=O)(=O)c2ccccc2)ccc1NS(=O)(=O)c1ccccc1`, the EC50 in series [1] is 9.35 µM (active).

As for `CN(C)C=O.COCCn1c(SCc2nc(O)c3c(C)c(C(=O)OC)sc3n2)nc2ccccc21`, the EC50 at Streptokinase A was > 150 µM (not active); in series [9], 6.06 µM (active); with Streptococcus, 101 µM (active). For the same compound, on Cytochrome P450 1A2, the AC50 was 25.1 µM (inconclusive).

For `Cc1nnc(SCC(=O)NC(=O)Nc2ccc3c(c2)OCCO3)n1N`, the EC50 is 32.8 µM (active) in series [2], 11.9 µM (active) in series [3] and > 120 µM (not active) with H4.

In the case of `O=C(Cn1cc(C(F)(F)F)cc(Cl)c1=O)NCc1ccccc1`, the EC50 was 31.6 µM (active) in series [2], 84.7 µM (active) in series [3] and 18.5 µM (active) in the series on H4.

Regarding `O=c1c(-c2ccc(Cl)cc2)cnc2n1CCS2`, the EC50 was 11.3 µM (active) in [2], 13 µM (active) in [3] and 13.7 µM (active) in the series on H4.

For `O=C(CSc1ccc(Cl)cc1)Nc1ccc(N2CCN(c3ccccc3)CC2)c(F)c1`, at Cytochrome P450 2C19 (read-out: AC50), the AC50 is 3.55 µM (inconclusive).

Regarding `CC1CN(CC(O)COC(c2ccc(Cl)cc2)c2ccc(Cl)cc2)CC(C)O1` (stereo not drawn), the AC50 with INS1 is 11.9 µM (active).

In the case of `Brc1ccccc1C1=Nn2c(nnc2-c2ccccc2)SC1`, the figures for the EC50 in series [4], in series [5] and in series [6] were 38.4 µM (active), > 120 µM (not active) and 15.5 µM (active), respectively.

Turning to `COC(=O)C1=CN(C2CCCCC2)C=C(C(=O)OC)C1c1ccc2c(c1)OCO2`, the EC50 was > 120 µM (not active) in [4]; > 60 µM (inconclusive) in [7]; 57.5 µM (active) in series [5]; 15.8 µM (active) in [6]; 1.56 µM (active) in [8].

As to `Cc1nn(-c2ccccc2)c2sc(C(=O)NC3CC3)cc12`, the EC50 in series [2] is 48.3 µM (active); in [3], > 120 µM (not active); with H4, 27.9 µM (active).

Consider `CCOC(=O)c1cc([N+](=O)[O-])sc1NC(=O)c1ccc(S(=O)(=O)N2CC3(C)CC2CC(C)(C)C3)cc1` (stereo not drawn), for which the EC50 in [1] is 0.793 µM (active).

With `O=C(Nc1cccnc1)c1ccc(CN2CCc3ccccc3C2)cc1`, the results for the EC50 (in series [2]; in series [3]; with H4) were 28.6 µM (active), 50.3 µM (active) and > 120 µM (not active), respectively.

As to `CCN(CC)CCN1C(=O)c2oc3ccccc3c(=O)c2C1c1ccc(F)cc1` (stereo not drawn), the EC50 is 14.1 µM (active) in series [2], > 120 µM (not active) in series [3] and 22.4 µM (active) in the series on H4.

For the compound `COC(=O)c1ccc(CSc2nncn2C)cc1`, the EC50 in [2] was 54.3 µM (active); in series [3], 9.45 µM (active); in the series on H4 it was 11.3 µM (active).

As to `CSc1ccc(S(=O)(=O)Nc2ccc(N3CCOCC3)c(Cl)c2)cc1`, the AC50 in the series with INS1 was 29.8 µM (active).

As for `Clc1ccc(CSc2nccn2Cc2ccccc2)cc1`, the EC50 was 24.2 µM (inconclusive) on Streptokinase A, 33 µM (active) in series [9] and > 150 µM (not active) in the series with Streptococcus. Moreover, at Cytochrome P450 2C9, the AC50 is 22.4 µM (inconclusive).

With `CC(Oc1ccc(C(=O)c2ccccc2)cc1)C(=O)Nc1ccc(S(N)(=O)=O)cc1` (stereo not drawn), in series [1], the EC50 was 8.21 µM (active).

As to `Clc1ccccc1Cn1nnc2c(N3CCOCC3)nc(C3CC3)nc21`, the EC50 in series [4] was 27 µM (active); in series [5], > 120 µM (not active); in series [6], 23.8 µM (active).

As for `NC1=C(c2nc3ccccc3[nH]2)C(=O)CN1c1ccccc1`, the EC50 in [2] was 79.8 µM (active); in [3] it was > 120 µM (not active); in the series with H4 it was 6.44 µM (active).

For `CCOC(=O)CN1C(=O)C(Sc2n[nH]c(-c3ccc(C)cc3)n2)CCc2ccccc21` (stereo not drawn), the values for the EC50 in series [4], in series [5] and in series [6] were > 120 µM (not active), > 120 µM (not active) and 19.1 µM (active), respectively.

Consider `COc1ccc(NC(=O)C(c2ccc(OC)cc2)N(C)C(=O)CNC(C)=O)cc1` (stereo not drawn), for which, on Cytochrome P450 2C19, the AC50 entry is “inconclusive”.

For `C#CCOCCOCCOCCNc1nc(N2CCN(C(=O)CCCCCCCCCCNC(=O)[C@H](CCCCN)n3cc(C[C@@H](C)CC)nn3)CC2)nc(N2CCN(C(=O)CCCCCCCCCCNC(=O)[C@@H]([C@H](C)O)n3cc(C)nn3)CC2)n1`, in the series on INS1, the AC50 is 4.74 µM (active).

Regarding `CCOC(=O)/C(=N\Nc1ccc(Cl)cc1)c1csc(Nc2ccccc2)n1`, the EC50 at Streptokinase A is 20.9 µM (active); in series [9], 6.05 µM (active); in series [7] it was > 60 µM (not active); in [8], 1.48 µM (active); in the series with Streptococcus it was 37 µM (active).
